Where two headings read alike, the source gives them in different places.

One assay deals with carboxylesterases. The assay is described as follows: General carboxylesterase inhibition. It is filed as biochemical. Here is the method: Carboxylesterase (CE) inhibition was determined by a spectroscopic assay using o-nitrophenyl acetate (o-NPA) as a substrate. Recombinant CEs produced from expression in Spodoptera frugiperda Sf9 insect cells via baculovirus were purified from serum-free culture media for the enzyme inhibition studies. Enzymes were incubated in 200 μl of 50 mM Hepes (pH 7.4) containing 3 mM o-NPA. Conversion of the o-NPA to nitrophenol was monitored by measuring the change in the absorbance at 420 nm. Absorbance readings were taken every 15 seconds for 2 minutes, and data transferred to a computer data spreadsheet. […] The final DMSO concentration was always 1% or less. […] The above procedure was then repeated using the same assay, with inhibitor concentrations ranging from 1 nM to 100 μM. Results were then transferred to Prism software (GraphPad Software, Inc., San Diego, Calif.) and Ki values determined using sigmoidal curve fits of the data. Routinely, all analyses were performed in duplicate, and Ki values determined using at least 8 inhibitor concentrations.

The target in assay [1] is T1, human small intestine carboxylesterase (hiCE) (Homo sapiens, UniProt O00748).
T1 sequence (O00748 27-559): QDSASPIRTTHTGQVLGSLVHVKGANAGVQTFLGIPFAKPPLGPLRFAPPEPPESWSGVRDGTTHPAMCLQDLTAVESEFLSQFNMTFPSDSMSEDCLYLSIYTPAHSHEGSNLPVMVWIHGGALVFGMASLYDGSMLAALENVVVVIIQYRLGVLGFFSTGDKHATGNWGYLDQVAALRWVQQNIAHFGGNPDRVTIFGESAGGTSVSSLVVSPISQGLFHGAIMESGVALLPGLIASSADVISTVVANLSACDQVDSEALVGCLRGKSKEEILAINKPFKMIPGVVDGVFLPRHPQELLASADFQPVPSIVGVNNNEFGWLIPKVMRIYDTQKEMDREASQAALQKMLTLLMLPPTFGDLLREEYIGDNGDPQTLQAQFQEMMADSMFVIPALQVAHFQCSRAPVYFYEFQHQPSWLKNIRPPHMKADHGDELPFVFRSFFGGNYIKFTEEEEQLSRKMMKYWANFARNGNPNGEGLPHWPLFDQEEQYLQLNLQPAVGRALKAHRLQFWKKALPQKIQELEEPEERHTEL
Description: biochemical. The assay is classed as biochemical. The note with it: o-NPA as substrate; Table 5; read-out: Ki hiCE.

The target of assay [2] is T2, human liver carboxylesterase (hCE1) (Homo sapiens, UniProt P23141).
T2 sequence (P23141 18-567): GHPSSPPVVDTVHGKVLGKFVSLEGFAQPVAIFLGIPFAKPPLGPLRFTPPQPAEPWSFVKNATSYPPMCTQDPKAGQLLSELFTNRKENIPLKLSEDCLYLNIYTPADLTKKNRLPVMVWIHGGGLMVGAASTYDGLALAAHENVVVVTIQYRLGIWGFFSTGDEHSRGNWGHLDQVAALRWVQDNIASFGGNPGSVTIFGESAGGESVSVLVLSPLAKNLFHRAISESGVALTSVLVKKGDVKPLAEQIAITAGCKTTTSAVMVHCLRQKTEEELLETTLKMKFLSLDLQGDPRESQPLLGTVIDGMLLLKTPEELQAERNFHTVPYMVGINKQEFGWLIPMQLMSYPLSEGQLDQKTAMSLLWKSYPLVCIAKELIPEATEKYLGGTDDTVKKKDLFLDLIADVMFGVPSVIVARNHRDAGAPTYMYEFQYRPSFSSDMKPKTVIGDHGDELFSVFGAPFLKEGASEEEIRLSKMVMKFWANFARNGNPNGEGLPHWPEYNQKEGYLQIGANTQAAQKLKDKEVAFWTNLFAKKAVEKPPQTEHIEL
The assay is described as follows: biochemical. The assay is classed as biochemical. The note with it: o-NPA as substrate.

Assay [3] concerns the target T3, human acetylcholinesterase (hAcChE) (Homo sapiens, UniProt P22303).
T3 construct: purchased Sigma Biochemicals (St. Louis, Mo.)
The assay is described as follows: biochemical. The assay is classed as biochemical. As for the experimental part: Data was transferred to GraphPad Prism software, and Ki values were calculated as described in the Example above.

Assay [4] has as its target T4, human intestinal carboxylesterase in U373MGhiCE cells (Homo sapiens, UniProt O00748).
T4 construct: expressed in transfected cells; host or cells: U373MG human glioma cells (U373MGhiCE)
T4 sequence (O00748 27-559): T1 sequence (O00748 27-559)
Description: Inhibition of intracellular carboxylesterase in U373MGhiCE cells. The assay is classed as cell-based. As for the experimental part: To monitor the ability of the compounds to cross the cell membrane and inhibit carboxylesterase activity intracellularly, an assay using human tumor cells expressing hiCE was devised. U373MGhiCE (a human glioma cell line transfected with a plasmid expressing hiCE) were plated in T25 flasks and allowed to grow to confluency (approximately 2-5×10^5 cells). Inhibitors were then added at a final concentration of […], and incubation allowed to continue for 1 hour. At this time, the cells were washed extensively with 5 ml of complete media and 2×5 ml of Hanks balanced salt solution, and cell extracts were prepared. Carboxylesterase activity was then determined using o-NPA as a substrate.
Table 8 sets forth the level of intracellular enzyme inhibition following incubation of human glioblastoma tumor cells expressing human intestinal carboxylesterase with 10 μM of each compound identified in Table 3.

The target of assay [5] is T5, rabbit liver carboxylesterase (rCE) (Oryctolagus cuniculus, UniProt P12337).
T5 sequence (P12337 19-565): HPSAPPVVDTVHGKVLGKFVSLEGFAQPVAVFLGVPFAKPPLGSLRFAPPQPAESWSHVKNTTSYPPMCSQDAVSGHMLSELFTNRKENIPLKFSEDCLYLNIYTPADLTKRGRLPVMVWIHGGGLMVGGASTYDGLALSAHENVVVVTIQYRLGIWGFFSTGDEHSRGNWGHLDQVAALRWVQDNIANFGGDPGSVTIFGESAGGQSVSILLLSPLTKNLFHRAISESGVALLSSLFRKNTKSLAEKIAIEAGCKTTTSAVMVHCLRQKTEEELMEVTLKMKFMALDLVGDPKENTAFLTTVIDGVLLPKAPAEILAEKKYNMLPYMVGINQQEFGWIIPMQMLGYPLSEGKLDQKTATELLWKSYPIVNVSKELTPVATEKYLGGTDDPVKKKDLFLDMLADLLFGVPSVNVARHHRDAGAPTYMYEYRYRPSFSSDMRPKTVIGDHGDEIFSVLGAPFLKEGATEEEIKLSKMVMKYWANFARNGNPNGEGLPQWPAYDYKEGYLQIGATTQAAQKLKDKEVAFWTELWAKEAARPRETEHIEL
Description: biochemical. The assay is classed as biochemical. The note with it: o-NPA as substrate; Table 6; read-out: rCE Ki ± SE.

In assay [6] the target is human butyrylcholinesterase (hBuChE) (Homo sapiens, UniProt P06276). The assay is described as follows: biochemical.
The mark [7] stands for this setting: acetylthiocholine substrate, Table 5, read-out: Ki hAcChE.
Setting [8] is: Table 6, read-out: hCE1 Ki ± SE.
The mark [9] stands for this setting: acetylthiocholine as substrate, Table 6, read-out: hAcChE Ki.
Setting [10] is: butyrylthiocholine as substrate, Table 6, read-out: hBuChE Ki.

T3 sequence (P22303 32-614): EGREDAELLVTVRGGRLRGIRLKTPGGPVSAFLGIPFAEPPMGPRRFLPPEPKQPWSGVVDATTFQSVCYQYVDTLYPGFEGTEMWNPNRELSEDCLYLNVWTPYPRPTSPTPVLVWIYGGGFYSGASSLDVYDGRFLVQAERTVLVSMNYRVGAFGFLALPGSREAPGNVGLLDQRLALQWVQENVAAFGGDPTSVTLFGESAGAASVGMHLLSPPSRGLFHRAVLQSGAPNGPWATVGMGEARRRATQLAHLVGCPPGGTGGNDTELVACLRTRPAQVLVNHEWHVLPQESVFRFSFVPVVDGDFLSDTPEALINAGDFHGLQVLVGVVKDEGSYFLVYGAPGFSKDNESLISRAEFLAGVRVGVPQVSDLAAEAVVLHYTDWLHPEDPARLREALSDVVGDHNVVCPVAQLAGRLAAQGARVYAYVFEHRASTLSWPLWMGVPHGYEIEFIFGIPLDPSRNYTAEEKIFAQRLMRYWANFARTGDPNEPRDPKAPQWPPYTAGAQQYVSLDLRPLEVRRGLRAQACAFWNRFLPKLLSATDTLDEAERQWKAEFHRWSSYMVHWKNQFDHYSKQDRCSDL
Chain of human butyrylcholinesterase (hBuChE) (P06276 29-602): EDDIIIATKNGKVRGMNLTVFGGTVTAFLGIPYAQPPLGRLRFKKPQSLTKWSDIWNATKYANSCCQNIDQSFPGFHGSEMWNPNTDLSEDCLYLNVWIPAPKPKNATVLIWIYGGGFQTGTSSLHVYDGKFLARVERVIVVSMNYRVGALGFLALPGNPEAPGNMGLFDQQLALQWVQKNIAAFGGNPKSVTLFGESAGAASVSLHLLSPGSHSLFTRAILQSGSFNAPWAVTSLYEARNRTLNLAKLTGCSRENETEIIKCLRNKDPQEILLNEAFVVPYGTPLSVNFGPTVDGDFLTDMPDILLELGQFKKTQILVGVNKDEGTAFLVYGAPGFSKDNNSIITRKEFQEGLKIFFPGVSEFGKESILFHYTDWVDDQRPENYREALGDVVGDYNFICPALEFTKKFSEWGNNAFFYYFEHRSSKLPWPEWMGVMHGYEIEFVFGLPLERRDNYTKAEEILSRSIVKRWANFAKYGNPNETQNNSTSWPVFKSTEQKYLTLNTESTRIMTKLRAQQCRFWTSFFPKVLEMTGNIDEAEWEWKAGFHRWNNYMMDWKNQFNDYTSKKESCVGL

`O=C(C(=O)c1cc(F)c(F)c(F)c1)c1cc(F)c(F)c(F)c1` [Compound 20, 1,2-bis(3,4,5-trifluorophenyl)ethane-1,2-dione]: the “found to be general carboxylesterase inhibitors” value in the assay on carboxylesterases is “general carboxylesterase inhibitors”.
Regarding `Cc1cc([N+](=O)[O-])ccc1NC(=O)Nc1ccccc1` [Compound 56, N-(2-methyl-4-nitrophenyl)-N′-phenylurea], the Ki is 1520 nM in assay [1]; more than 100000 nM in assay [2] (Table 5, read-out: Ki hCE1); more than 100000 nM in assay [3] (setting [7]). In assay [4], this compound gave an inhibition at 10 µM of 0%.
Consider `O=C(O)c1ccc(C(=O)C(=O)c2ccccc2)cc1` [Compound 1, 4-[oxo(phenyl)acetyl]benzoic acid], for which the Ki in assay [2] (setting [8]) is 524 ± 46 nM; in assay [5] it was 64 ± 6.2 nM; in assay [3] (setting [9]), more than 100000 nM; in assay [6] (setting [10]), more than 100000 nM. In the assay with carboxylesterases, the “found to be general carboxylesterase inhibitors” value was “general carboxylesterase inhibitors”.
As for `Cc1cccc(C)c1NC(=O)Nc1ccc([N+](=O)[O-])cc1` [Compound 54, N-(2,6-dimethylphenyl)-N′-(4-nitrophenyl)urea], the Ki in assay [1] is 320 nM; in assay [2] (Table 5, read-out: Ki hCE1), more than 100000 nM; in assay [3] (setting [7]), more than 100000 nM. This compound showed an inhibition at 10 µM in assay [4] of 0%.
Turning to `O=C(NC(Cc1ccccc1)C(=O)Oc1ccc2ccccc2c1)c1ccccc1` (stereo not shown) [Compound 57, 2-Benzoylamino-3-phenyl-propionic acid naphthalene-2-yl ester], the Ki is 61 nM in assay [1]; more than 100000 nM in assay [2] (Table 5, read-out: Ki hCE1); more than 100000 nM in assay [3] (setting [7]). Further, the inhibition at 10 µM in assay [4] came to 24.2%.
For the compound `Cc1ccc(C(=O)C(=O)c2ccc(Cl)cc2)cc1` [Compound 22, 1-(4-chlorophenyl)-2-(4-methylphenyl)ethane-1,2-dione], the Ki in assay [2] (setting [8]) was 160 ± 32 nM; in assay [5], 16.2 ± 1.7 nM; in assay [6] it was more than 100000 nM. Besides, the “found to be general carboxylesterase inhibitors” value with carboxylesterases was “general carboxylesterase inhibitors”.
As for `O=C(C(=O)c1cccs1)c1cccs1` [Compound 23, 1,2-dithien-2-yl-ethane-1,2-dione], in the assay on carboxylesterases, the “found to be general carboxylesterase inhibitors” value is given as “general carboxylesterase inhibitors”.
Turning to `O=C(C(=O)c1cc(F)cc(F)c1)c1cc(F)cc(F)c1` [Compound 19, 1,2-bis(3,5-difluorophenyl)ethane-1,2-dione], the “found to be general carboxylesterase inhibitors” value in the assay on carboxylesterases is reported as “general carboxylesterase inhibitors”.
Regarding `COc1cc(OC)c(NC(=O)c2cc3ccccc3cc2O)cc1Cl` [Compound 42, N-(5-chloro-2,4-dimethoxyphenyl)-3-hydroxy-2-naphthamide], the Ki in assay [1] is 159 nM; in assay [2] (Table 5, read-out: Ki hCE1), more than 100000 nM; in assay [3] (setting [7]), more than 100000 nM. Moreover, the inhibition at 10 µM in assay [4] is 0%.
In the case of `Cc1ccc(C(=O)C(=O)c2ccc(C)cc2)cc1` [Compound 17, 1,2-bis(4-methylphenyl)ethane-1,2-dione], the Ki in assay [2] (setting [8]) was 532 ± 35 nM; in assay [5] it was 49.6 ± 6.8 nM; in assay [3] (setting [9]), more than 100000 nM; in assay [6] (setting [10]) it was more than 100000 nM. In addition, in the assay on carboxylesterases, the “found to be general carboxylesterase inhibitors” value is “general carboxylesterase inhibitors”.
As for `O=C(C(=O)c1ccc(F)cc1)c1ccc(F)cc1` [Compound 16, 1,2-bis(4-fluorophenyl)ethane-1,2-dione], the “found to be general carboxylesterase inhibitors” value in the assay on carboxylesterases is “general carboxylesterase inhibitors”.
As for `Cc1ccc(C(=O)C(=O)c2ccccc2)cc1C` [Compound 5, 1-(3,4-dimethylphenyl)-2-phenylethane-1,2-dione], the Ki in assay [2] (setting [8]) is 99.1 ± 10 nM; in assay [5] it was 108 ± 8.8 nM; in assay [3] (setting [9]), more than 100000 nM; in assay [6] it was more than 100000 nM. The “found to be general carboxylesterase inhibitors” value with carboxylesterases is on record as “general carboxylesterase inhibitors”.
Take `O=C(C(=O)c1ccc([N+](=O)[O-])cc1)c1ccccc1` [Compound 14, 1-(4-nitrophenyl)-2-phenylethane-1,2-dione]: the Ki in assay [2] (setting [8]) is 215 ± 24 nM; in assay [5], 21.7 ± 2.5 nM; in assay [3] (setting [9]), more than 100000 nM; in assay [6] it was more than 100000 nM. For the same compound, the “found to be general carboxylesterase inhibitors” value in the assay on carboxylesterases was “general carboxylesterase inhibitors”.
As to `COc1ccc(C(=O)C(=O)c2ccccc2)cc1` [Compound 6, 1-(4-methoxyphenyl)-2-2phenylethane-1,2-dione], the Ki in assay [2] (setting [8]) was 175 ± 8.5 nM; in assay [5] it was 200 ± 60 nM; in assay [3] (setting [9]), more than 100000 nM; in assay [6], more than 100000 nM. For the same compound, the “found to be general carboxylesterase inhibitors” value in the assay with carboxylesterases is “general carboxylesterase inhibitors”.
Consider `Cc1ccc(C(=O)C(=O)c2ccccc2)cc1[N+](=O)[O-]` [Compound 7, 1-(4-methyl-3-nitrophenyl)-2-phenylethane-1,2-dione], for which the Ki in assay [2] (setting [8]) is 295 ± 9.6 nM; in assay [5], 11.9 ± 1.1 nM; in assay [3] (setting [9]), more than 100000 nM; in assay [6], more than 100000 nM. Moreover, the “found to be general carboxylesterase inhibitors” value in the assay on carboxylesterases is “general carboxylesterase inhibitors”.
For `O=C(C(=O)c1ccc(CBr)cc1)c1ccccc1` [Compound 3], the inhibition constant (Ki) is 77.6 ± 5.5 nM in assay [2] (setting [8]), 15 ± 1.6 nM in assay [5] and more than 100000 nM in assay [6]. Moreover, the “found to be general carboxylesterase inhibitors” value in the assay on carboxylesterases was “general carboxylesterase inhibitors”.

One may read the Ki as a measure of affinity in units of concentration, obtained from inhibition or displacement. What is called inhibition is the relative decrease from the control value, in per cent. Low readings indicate a response near the control, high ones a response far below the control.

The record behind these values is patent publication US7973034B2, “Amide, aryl sulfonamide, aryl urea, and α,β-diketone derived carboxylesterase inhibitors, and their methods of use” (priority 2003, dated 2011).
